The source made the active and inactive calls. The rule behind the calls is not given here.
Key:
[1] = Antiproliferative activity against human HFL1 cells incubated for 72 hrs by MTT assay; type: toxicity, cell-based
Histone deacetylase 1 [2] = target: T1, Histone deacetylase 1 (Homo sapiens, UniProt Q13547); assay: Inhibition of HDAC1 derived from human HeLa cell extract using Ac-Leu-Gly-Lys (Ac)-AMC as substrate by fluorescence based assay; type: cell-free
Tubulin = assay: Inhibition of tubulin (unknown origin) polymerization measured for 60 mins by absorbance based assay; type: protein-complex assay, Homo sapiens
[3] = target: T2, Protein deacetylase HDAC6 (Homo sapiens) (UniProt Q9UBN7); assay: Inhibition of HDAC6 in human K562 cells assessed as increase in Acetyl-alpha-tubulin level at 0.01 to 1 uM incubated for 24 hrs by Western blot analysis; type: cell-based; conditions: dose 0.01-1 µM
T2 sequence (whole entry): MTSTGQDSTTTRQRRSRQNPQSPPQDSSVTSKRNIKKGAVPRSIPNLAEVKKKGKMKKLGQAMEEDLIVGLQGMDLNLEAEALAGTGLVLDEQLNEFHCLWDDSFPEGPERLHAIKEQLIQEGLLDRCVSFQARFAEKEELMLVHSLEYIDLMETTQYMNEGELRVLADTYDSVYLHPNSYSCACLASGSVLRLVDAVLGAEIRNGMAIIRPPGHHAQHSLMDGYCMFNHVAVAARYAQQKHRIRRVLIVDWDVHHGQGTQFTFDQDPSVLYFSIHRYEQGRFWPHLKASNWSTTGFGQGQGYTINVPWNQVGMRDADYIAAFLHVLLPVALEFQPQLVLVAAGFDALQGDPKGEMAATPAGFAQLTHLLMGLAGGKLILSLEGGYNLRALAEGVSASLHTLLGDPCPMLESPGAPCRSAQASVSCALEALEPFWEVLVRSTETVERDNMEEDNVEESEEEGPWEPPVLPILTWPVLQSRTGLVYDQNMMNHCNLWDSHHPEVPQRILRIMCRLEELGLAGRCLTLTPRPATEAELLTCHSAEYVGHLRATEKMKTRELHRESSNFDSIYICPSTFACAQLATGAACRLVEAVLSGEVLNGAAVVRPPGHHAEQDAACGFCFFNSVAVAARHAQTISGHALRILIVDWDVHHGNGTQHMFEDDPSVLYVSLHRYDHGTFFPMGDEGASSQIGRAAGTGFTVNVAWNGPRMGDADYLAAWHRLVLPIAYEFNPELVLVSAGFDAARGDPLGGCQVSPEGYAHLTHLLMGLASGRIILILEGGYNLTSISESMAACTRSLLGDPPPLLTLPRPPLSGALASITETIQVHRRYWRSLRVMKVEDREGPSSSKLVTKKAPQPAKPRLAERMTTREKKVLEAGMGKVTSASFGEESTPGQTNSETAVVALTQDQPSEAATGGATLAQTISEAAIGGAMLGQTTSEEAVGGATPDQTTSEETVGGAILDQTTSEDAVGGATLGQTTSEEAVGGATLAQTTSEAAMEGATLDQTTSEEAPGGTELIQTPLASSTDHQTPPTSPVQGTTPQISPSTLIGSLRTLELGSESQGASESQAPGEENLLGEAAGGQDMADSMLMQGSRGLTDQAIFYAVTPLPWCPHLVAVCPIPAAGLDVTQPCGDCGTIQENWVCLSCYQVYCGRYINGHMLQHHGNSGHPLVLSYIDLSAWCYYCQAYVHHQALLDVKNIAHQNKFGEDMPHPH

Histone deacetylase 1 [4] = target: T1, Histone deacetylase 1; assay: Inhibition of HDAC1 in human K562 cells assessed as increase in Acetyl-histone H3 level at 0.01 to 1 uM incubated for 24 hrs by Western blot analysis; type: cell-based; conditions: dose 0.01-1 µM
K562 [5] = assay: Induction of cell cycle arrest at S phase in human K562 cells at 2 nM incubated for 48 hrs by PI staining based flow cytometry (reference value: 22.56 +/- 0.47 %); type: functional
K562 [6] = assay: Induction of cell cycle arrest at S phase in human K562 cells at 8 nM incubated for 48 hrs by PI staining based flow cytometry (reference value: 22.56 +/- 0.47 %); type: functional
K562 [7] = assay: Induction of cell cycle arrest at G2 phase in human K562 cells at 8 nM incubated for 48 hrs by PI staining based flow cytometry (Rvb =15.36 +/- 0.46 %); type: functional
K562 [8] = assay: Effect on cell cycle in human K562 cells assessed as decrease in Cdc25c level incubated for 24 hrs by Western blot analysis; type: functional, cell-based; conditions: dose 2-8 nM
K562 [9] = assay: Induction of apoptosis in human K562 cells assessed as necrotic cells at 2 nM incubated for 48 hrs by Annexin V/PI staining based flow cytometry (reference value: 2.56 +/- 0.22 %); type: functional
K562 [10] = assay: Induction of apoptosis in human K562 cells assessed as viable cells at 4 nM incubated for 48 hrs by Annexin V/PI staining based flow cytometry (reference value: 92.52 +/- 0.34 %); type: functional; conditions: read-out: Activity
K562 [11] = assay: Induction of apoptosis in human K562 cells assessed as late apoptotic cells at 4 nM incubated for 48 hrs by Annexin V/PI staining based flow cytometry (reference value: 3.37 +/- 0.21 %); type: functional
K562 [12] = assay: Induction of apoptosis in human K562 cells assessed as viable cells at 8 nM incubated for 48 hrs by Annexin V/PI staining based flow cytometry (reference value: 92.52 +/- 0.34 %); type: functional; conditions: read-out: Activity
K562 [13] = assay: Induction of apoptosis in human K562 cells assessed as late apoptotic cells at 8 nM incubated for 48 hrs by Annexin V/PI staining based flow cytometry (reference value: 3.37 +/- 0.21 %); type: functional
K562 [14] = assay: Induction of apoptosis in human K562 cells assessed as necrotic cells at 8 nM incubated for 48 hrs by Annexin V/PI staining based flow cytometry (reference value: 2.56 +/- 0.22 %); type: functional
K562 [15] = assay: Inhibition of mitochondrial membrane potential in human K562 cells assessed as green fluorescence intensity at 8 nM incubated for 48 hrs by JC-1 staining based flow cytometry (reference value: 6.63 +/- 0.27 %); type: functional
K562 [16] = assay: Induction of ROS generation in human K562 cells assessed as DCF-positive cells at 4 nM incubated for 48 hrs by DCF-DA probe based flow cytometry (reference value: 3.87 %); type: functional
H22 [17] = assay: Antiproliferative activity against mouse H22 cells incubated for 72 hrs by MTT assay; type: functional, cell-based; conditions: H22, 72 h
H22 [18] = assay: Antitumor activity against mouse H22 cells allografted in ICR mouse assessed as tumor growth inhibition at 10 mg/kg, iv qd for 17 days consecutively relative to control; type: functional; conditions: time 17 day, read-out: TGI
H22 [19] = assay: Antitumor activity against mouse H22 cells allografted in ICR mouse assessed as decrease in tumor volume at 10 to 20 mg/kg, iv qd for 17 days consecutively; type: functional, organism-based; conditions: dose 10-20 mg/kg, time 17.0 day
H22 [20] = assay: Antitumor activity against mouse H22 cells allografted in ICR mouse assessed as decrease in tumor weight at 10 to 20 mg/kg, iv qd for 17 days consecutively; type: functional, organism-based; conditions: dose 10-20 mg/kg, time 17.0 day
MDA-MB-231 = assay: cells; conditions: Homo sapiens, MDA-MB-231, 72 h
Description: Antiproliferative activity against human MDA-MB-231 cells incubated for 72 hrs by MTT assay

T1 sequence (Q13547 whole entry): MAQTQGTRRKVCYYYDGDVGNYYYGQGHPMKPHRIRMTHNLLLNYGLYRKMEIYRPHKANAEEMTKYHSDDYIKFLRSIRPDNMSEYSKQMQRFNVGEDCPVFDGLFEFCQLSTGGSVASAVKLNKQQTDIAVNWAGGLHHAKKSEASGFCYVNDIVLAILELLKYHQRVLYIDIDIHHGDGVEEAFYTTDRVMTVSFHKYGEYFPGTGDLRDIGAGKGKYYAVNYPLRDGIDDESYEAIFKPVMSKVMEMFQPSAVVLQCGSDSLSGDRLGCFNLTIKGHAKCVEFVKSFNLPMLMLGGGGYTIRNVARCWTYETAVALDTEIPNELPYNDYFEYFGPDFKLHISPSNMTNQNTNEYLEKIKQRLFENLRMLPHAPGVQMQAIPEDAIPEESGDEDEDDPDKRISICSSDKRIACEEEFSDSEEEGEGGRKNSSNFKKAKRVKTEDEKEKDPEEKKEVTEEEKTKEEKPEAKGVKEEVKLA

Compound `C=C(c1ccc(OC)c(OC(F)C(=O)NO)c1)c1cc(C)nc2ccccc12` (configuration not stated) has an IC50 at 72 h [1] of 230 nM, an IC50 (Histone deacetylase 1 [2]) of 403 nM and an IC50 (Tubulin) of 3840 nM. For the same compound, the inhibition [3] was “Active”, the inhibition (Histone deacetylase 1 [4]) was “Active” and the Activity (K562 [5]) was 22.65%. For the same compound, the Activity (K562 [6]) was 30.41%, the Activity (K562 [7]) was 27.87% and the Activity (K562 [8]) was “Dose-Dependent Effect”. For the same compound, the Activity (K562 [9]) was 0.36%, the viability at 0.004 µM (K562 [10]) was 66.6% and the Activity (K562 [11]) was 8.7%. It also gave a viability at 0.008 µM (K562 [12]) of 52.6%, an Activity (K562 [13]) of 25.59% and an Activity (K562 [14]) of 3.7%. The Flu intensity (K562 [15]) was 42.31%, the Activity (K562 [16]) was 29.72% and the IC50 (H22 [17]) was 8 nM. For the same compound, the inhibition in vivo at 10 mg/kg (H22 [18]) was 48%, the Activity (H22 [19]) was “Active” and the Activity (H22 [20]) was “Active”. For the same compound, the IC50 (MDA-MB-231) was 11 nM.

From ChEMBL document CHEMBL5620374, “Synthesis and bioevaluation of novel stilbene-based derivatives as tubulin/HDAC dual-target inhibitors with potent antitumor activities in vitro and in vivo” (Eur J Med Chem, 2023)
